Data on 61 compounds can be found in US8436186B2, “Thiazolyl piperidine derivatives” (Merck Patent Gesellschaft mit beschrankter Haftung, priority 2008, dated 2013).

Sequence of SphK1 (Q9NYA1 whole entry): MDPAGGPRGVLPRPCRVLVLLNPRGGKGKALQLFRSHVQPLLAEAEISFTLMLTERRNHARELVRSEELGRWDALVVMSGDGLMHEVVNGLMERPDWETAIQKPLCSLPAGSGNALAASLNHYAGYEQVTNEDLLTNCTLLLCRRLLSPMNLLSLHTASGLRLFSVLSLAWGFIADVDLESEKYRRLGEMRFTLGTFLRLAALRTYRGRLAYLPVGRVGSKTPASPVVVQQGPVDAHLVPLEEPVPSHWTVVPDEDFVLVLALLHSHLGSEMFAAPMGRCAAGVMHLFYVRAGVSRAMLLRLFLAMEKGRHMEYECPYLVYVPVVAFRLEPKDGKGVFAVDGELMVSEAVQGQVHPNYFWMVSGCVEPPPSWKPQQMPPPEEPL

The target in the experiment is SphK1 (Homo sapiens, UniProt Q9NYA1). Put plainly: SphK1 384-well flashplate kinase assay. Format: biochemical. The note with it: enzyme assay. As for the experimental part:
The kinase assay is carried out as a 384-well flashplate assay.
5 nM modified SphK1, 800 nM omega-biotinyl-D-erythro-sphingosine and 1 μM ATP (with 0.3 μCi of ^33P-ATP/well) are incubated in a total volume of 50 μl (25 mM HEPES, 5 mM MgCl2, 1 mM dithiothreitol, 0.01% of Brij35, 0.1% of BSA (fatty acid-free), pH 7.4) without or with test substance (5-10 concentrations) at 30° C. for 120 min. The reaction is terminated using 25 μl of 200 mM EDTA solution, filtered off with suction at room temperature after 30 min, and the cavities are washed 3 times with 100 μl of 0.9% NaCl solution. The non-specific proportion of the kinase reaction (blank) is determined using 0.5 mM NaCl. Radioactivity is measured in topcount. IC50 values are calculated using RS1.
Usually IC50 stands for the point on the concentration scale where inhibition reaches its midpoint. The low end stands for greater potency in that assay, the high end for weaker potency in that assay. Turning to `COCC(O)CN1CCC(c2nc(-c3ccc4c(c3)C(C)(C)CCC4(C)C)cs2)CC1` (stereo not shown) [Compound A17], the half-inhibitory concentration (IC50) is 10 to 1000 nM.

Regarding `c1cc2c(cc1-c1csc(C3CCNCC3)n1)CCCC2` [Compound C6], the IC50 fell in the range of 10 to 1000 nM.

Turning to `CC1(C)CCC(C)(C)c2cc(-c3csc(C4CCN(CCO)CC4)n3)ccc21` [Compound A9], the IC50 was in the range of 10 to 1000 nM. With `CN(C)CCOCCOC(=O)N1CCC(c2nc(-c3ccc4c(c3)C(C)(C)CCC4(C)C)cs2)CC1` [Compound A47] the figure was 1000 to 10000 nM; with `CC1(C)CCC(C)(C)c2cc(-c3csc(C4CCN(C(=O)[C@H]5C[C@H](O)CN5)CC4)n3)ccc21` [Compound A68], 1000 to 10000 nM.

In turn, `CCc1cc2c(cc1-c1csc(C3CCNCC3)n1)C(C)(C)CCC2(C)C` [Compound C11] had an IC50 greater than 10000 nM.

For `CC1(C)CCC(C)(C)c2cc(-c3csc(C4CCN(C[C@H](O)CO)CC4)n3)ccc21` [Compound A22], the IC50 lay within 10 to 1000 nM.

Take `CC1(C)CCC(C)(C)c2cc(-c3csc(C4CCN(C(=O)[C@@H](N)CC(N)=O)CC4)n3)ccc21` [Compound A69]: the IC50 lay within 1000 to 10000 nM. As to `CC1(C)CCC(C)(C)c2cc(-c3csc(C4CCN(C(=O)[C@@H](N)Cc5cnc[nH]5)CC4)n3)ccc21` [Compound A63, (S)-2-amino-3-(3H-imidazol-4-yl)-1-{4-[4-(5,5,8,8-tetramethyl-5,6,7,8-tetrahydronaphthalen-2-yl)thiazol-2-yl]piperidin-1-yl}-propan-1-one], the IC50 lay in the range of 1000 to 10000 nM. With `CC(=O)N1CCC(c2nc(-c3ccc4c(c3)C(C)(C)CCC4(C)C)cs2)CC1` [Compound A80] the figure was 1000 to 10000 nM. To `Cc1oncc1S(=O)(=O)N1CCC(c2nc(-c3ccc4c(c3)C(C)(C)CCC4(C)C)cs2)CC1` [Compound A82] belongs 1000 to 10000 nM.

Compound `NC(=O)CN1CCC(c2nc(-c3ccc4c(c3)CCCC4)cs2)CC1` [Compound A3] came in with an IC50 greater than 10000 nM. Consider `CC1(C)CCC(C)(C)c2cc(-c3csc(C4CCN(CCN5CCCCC5)CC4)n3)ccc21` [Compound A19], for which the IC50 is 1000 to 10000 nM.

`CN1CCC(c2nc(-c3ccc4c(c3)C(C)(C)CCC4(C)C)cs2)CC1` [Compound A33] yielded an IC50 of 10 to 1000 nM.

For the compound `CC1(C)CCC(C)(C)c2cc(-c3csc(C4CCN(CCN5CCOCC5)CC4)n3)ccc21` [Compound A25], the IC50 lay in the range of 1000 to 10000 nM.

Take `CC1(C)CCC(C)(C)c2cc(-c3csc(C4CCN(Cc5ccccn5)CC4)n3)ccc21` [Compound A77]: the IC50 fell in the range of 1000 to 10000 nM. With `CC1(C)CCC(C)(C)c2cc(-c3csc(C4CCN(CC5CNC(=O)O5)CC4)n3)ccc21` (stereo not shown) [Compound A27] the figure was 1000 to 10000 nM. For the compound `Cn1cccc1CN1CCC(c2nc(-c3ccc4c(c3)C(C)(C)CCC4(C)C)cs2)CC1` [Compound B8], the IC50 fell in the range of 1000 to 10000 nM.

As for `CC1(C)CCC(C)(C)c2cc(-c3csc(C4CCN(Cc5ccncc5)CC4)n3)ccc21` [Compound A74], the 50% inhibitory concentration (IC50) was 1000 to 10000 nM. With `COCCCNC(=O)N1CCC(c2nc(-c3ccc4c(c3)C(C)(C)CCC4(C)C)cs2)CC1` [Compound A79], the half-inhibitory concentration (IC50) was in the range of 1000 to 10000 nM.

`CC(CCO)N1CCC(c2nc(-c3ccc4c(c3)C(C)(C)CCC4(C)C)cs2)CC1` (stereo not shown) [Compound A40] showed an IC50 of 10 to 1000 nM. With `CN1CCCC1CCN1CCC(c2nc(-c3ccc4c(c3)CCCC4)cs2)CC1` (stereo not shown) [Compound A7], the IC50 was greater than 10000 nM. With `CN1CCCCC1CCN1CCC(c2nc(-c3ccc4c(c3)C(C)(C)CCC4(C)C)cs2)CC1` (stereo not shown) [Compound A23] the figure was 1000 to 10000 nM; with `CC1(C)CCC(C)(C)c2cc(-c3csc(C4CCN(C(=O)CCN5CCNCC5)CC4)n3)ccc21` [Compound A67], greater than 10000 nM. To `CC1(C)CCC(C)(C)c2cc(-c3csc(C4CCN(C(=O)[C@@H](N)CO)CC4)n3)ccc21` [Compound A64] belongs 1000 to 10000 nM; to `CC1(C)CC(C)(C)c2cc(-c3csc(C4CCN(CCCCCO)CC4)n3)ccc21` [Compound B5], 10 to 1000 nM; to `CN(C)CCN1CCC(c2nc(-c3ccc4c(c3)C(C)(C)CCC4(C)C)cs2)CC1` [Compound A4], 1000 to 10000 nM. To `CC1(C)CCC(C)(C)c2cc(-c3csc(C4CCN(C(=O)c5ccncc5)CC4)n3)ccc21` [Compound A52] belongs 1000 to 10000 nM. Turning to `CC1(C)CCC(C)(C)c2cc(-c3csc(C4CCN(CCN)CC4)n3)ccc21` [Compound A81], the IC50 was in the range of 10 to 1000 nM.

Consider `CCN1CCCC(N2CCC(c3nc(-c4ccc5c(c4)C(C)(C)CCC5(C)C)cs3)CC2)C1` (stereo not shown) [Compound A2, 1′-ethyl-4-[4-(5,5,8,8-tetramethyl-5,6,7,8-tetrahydronaphthalen-2-yl)thiazol-2-yl]-[1,3]bipiperidinyl], for which the IC50 lay in the range of 1000 to 10000 nM. To `CC1(C)CC(C)(C)c2cc(-c3csc(C4CCN(CCCCO)CC4)n3)ccc21` [Compound B6] belongs 10 to 1000 nM; to `CC(CN1CCOCC1)CN1CCC(c2nc(-c3ccc4c(c3)C(C)(C)CCC4(C)C)cs2)CC1` (stereo not shown) [Compound A1, 4-(2-methyl-3-{4-[4-(5,5,8,8-tetramethyl-5,6,7,8-tetrahydronaphthalen-2-yl)thiazol-2-yl]piperidin-1-yl}propyl)morpholine], greater than 10000 nM; to `Cc1cc2c(cc1-c1csc(C3CCNCC3)n1)C(C)(C)CCC2(C)C` [Compound C5], 1000 to 10000 nM. To `CC1(O)CCCc2cc(-c3csc(C4CCNCC4)n3)ccc21` (stereo not shown) [Compound C2] belongs 10 to 1000 nM.

In turn, `CC1(C)CCC(C)(C)c2cc(-c3csc(C4CCN(C(=O)OCCN5CCCC5)CC4)n3)ccc21` [Compound A49] registered an IC50 greater than 10000 nM. With `CC(C)NCC(O)CN1CCC(c2nc(-c3ccc4c(c3)C(C)(C)CCC4(C)C)cs2)CC1` (stereo not shown) [Compound A20] the figure was 10 to 1000 nM. With `CC1(C)CCC(C)(C)c2cc(-c3csc(C4CCN(Cc5cc[nH]n5)CC4)n3)ccc21` [Compound B7] the figure was 10 to 1000 nM; with `CC1(C)CC(C)(C)c2cc(-c3csc(C4CCN(CCCO)CC4)n3)ccc21` [Compound B4], 10 to 1000 nM. With `COCC(C)NC(=O)N1CCC(c2nc(-c3ccc4c(c3)C(C)(C)CCC4(C)C)cs2)CC1` (stereo not shown) [Compound A78] the figure was 1000 to 10000 nM; with `CC1(C)CC(C)(C)c2cc(-c3csc(C4CCNCC4)n3)ccc21` [Compound C7], 10 to 1000 nM; with `Cc1cc(-c2csc(C3CCNCC3)n2)c(O)c2c1CCC2` [Compound C10], 1000 to 10000 nM.

`COCCCOC(=O)N1CCC(c2nc(-c3ccc4c(c3)C(C)(C)CCC4(C)C)cs2)CC1` [Compound A46, 3-methoxypropyl 4-[4-(5,5,8,8-tetramethyl-5,6,7,8-tetrahydronaphthalen-2-yl)thiazol-2-yl]piperidine-1-carboxylate] came in with a concentration for half-maximal inhibition (IC50) of 1000 to 10000 nM. To `OC[C@H](O)CN1CCC(c2nc(-c3ccc4c(c3)CCCC4)cs2)CC1` [Compound A15] belongs 1000 to 10000 nM.

Regarding `CC1(C)CCC(C)(C)c2cc(-c3csc(C4CCN(C(=O)[C@H](N)CCCCO)CC4)n3)ccc21` [Compound A66], the IC50 is 10 to 1000 nM. With `CCN(CC)CCNC(=O)N1CCC(c2nc(-c3ccc4c(c3)C(C)(C)CCC4(C)C)cs2)CC1` [Compound A45] the figure was greater than 10000 nM. The compound `CC1(C)CCC(C)(C)c2cc(-c3csc(C4CCN(CCn5c(=O)[nH]c6ccccc6c5=O)CC4)n3)ccc21` [Compound A24] returned an IC50 of 1000 to 10000 nM. With `CCN(CC)CCCN1CCC(c2nc(-c3ccc4c(c3)C(C)(C)CCC4(C)C)cs2)CC1` [Compound A36] the figure was 1000 to 10000 nM; with `CCN(CC)CCN1CCC(c2nc(-c3ccc4c(c3)C(C)(C)CCC4(C)C)cs2)CC1` [Compound A26], 1000 to 10000 nM. In turn, `CN(C)CCN1CCC(c2nc(-c3ccc4c(c3)CCCC4)cs2)CC1` [Compound A6] yielded an IC50 greater than 10000 nM. To `CN1CCCC(COC(=O)N2CCC(c3nc(-c4ccc5c(c4)C(C)(C)CCC5(C)C)cs3)CC2)C1` (stereo not shown) [Compound A50] belongs greater than 10000 nM; to `CC1(C)CCC(C)(C)c2cc(-c3csc(C4CCN(CCN5CCCC5)CC4)n3)ccc21` [Compound A21], 1000 to 10000 nM. With `Cc1[nH]cnc1CN1CCC(c2nc(-c3ccc4c(c3)C(C)(C)CCC4(C)C)cs2)CC1` [Compound A72] the figure was 10 to 1000 nM; with `CN(C)CCCNC(=O)N1CCC(c2nc(-c3ccc4c(c3)C(C)(C)CCC4(C)C)cs2)CC1` [Compound A42], 1000 to 10000 nM. Regarding `CC1(C)CCC(C)(C)c2cc(-c3csc(C4CCN(C(=O)Cc5ccncc5)CC4)n3)ccc21` [Compound A51, 2-pyridin-4-yl-1-{4-[4-(5,5,8,8-tetramethyl-5,6,7,8-tetrahydronaphthalen-2-yl)thiazol-2-yl]piperidin-1-yl}ethanone], the IC50 was 1000 to 10000 nM. With `CC1(C)CCC(C)(C)c2cc(-c3csc(C4CCN(CCCO)CC4)n3)ccc21` [Compound A16] the figure was 1000 to 10000 nM. `CC1(C)CCC(C)(C)c2cc(-c3csc(C4CCN(C(=O)NCCc5ccccn5)CC4)n3)ccc21` [Compound A43] displayed an IC50 of 1000 to 10000 nM. With `CN(C)CC(C)(C)CN1CCC(c2nc(-c3ccc4c(c3)C(C)(C)CCC4(C)C)cs2)CC1` [Compound A76] the figure was greater than 10000 nM; with `COCCN1CCC(c2nc(-c3ccc4c(c3)C(C)(C)CCC4(C)C)cs2)CC1` [Compound A32], 10 to 1000 nM. To `CC1(C)CCC(C)(C)c2cc(-c3csc(C4CCN(CCCCCO)CC4)n3)ccc21` [Compound B10] belongs 10 to 1000 nM; to `CC1(C)CCC(C)(C)c2cc(-c3csc(C4CCN(CC(N)=O)CC4)n3)ccc21` [Compound A8], 1000 to 10000 nM. With `CC1(C)CCCc2cc(-c3csc(C4CCN(CCCCO)CC4)n3)ccc21` [Compound B3] the figure was 10 to 1000 nM.
